The source of these data is patent publication US20140303246A1, “USE OF ADAMANTANE DERIVATIVES FOR THE TREATMENT OF ACTINIC KERATOSIS” (MERZ Pharma GmbH & Co. KGaA, priority 2011, published 2014).

Data set [1] is described as follows: Resazurin assay, viability of cells by metabolic activity. The format is cell-based. The following applies: human, primary human epidermal keratinocytes (NHEK), metabolic activity (Resazurin) as read-out, read-out: IC50 for the cytolytic/cytotoxic effect based on metabolic activity. Here is the method: (§1) By using primary human epidermal keratinocytes (NHEK, FIG. 1) the cytolytic potential of several drug compound was investigated.
(§2) The viability of the cells was monitored by their metabolic activity using the Resazurin—assay. Eight different concentrations (up to 1 mM) of amantadine were investigated. Viability of the cells was plotted against the different concentration of test compound.
(§3) From the resulting sigmoid-curve the IC50 value for the cytolytic effect was determined and given in the respective figure. FIG. 1 depicts the relative viability vs. the concentration on NHEK cells using metabolic activity as read-out.
(§4) For each of these compounds, the same experiments were performed in an analogous fashion to the compound of Example 1 except that the test items were prepared in separate plates starting with the double concentrated maximal test concentration followed by a 1:3 serial dilution and then added to the cells. The test items were tested at 6 replicates/concentration. In addition to metabolic activity also the release of cytoplasmatic-lactate dehydrogenase (LDH) was used to monitor cell death. Early release (after 6 hrs) indicate membrane damage a primary mode of action
(In general: Alamar Blue is a resazurin reagent that responds to reducing activity.)

Data set [2] relates to primary human epidermal keratinocytes (NHEK). The data set is described as above. The class given is cell-based. Here is the method: as §1, §2, §3, §4
The test system of a further data set is NHEK cells. Nature of the data set: Release of cytoplasmatic lactate dehydrogenase (LDH) to monitor cell death / membrane damage. The class given is cell-based, human. Here is the method: as §4

Regarding `CC(N)C12CC3CC(CC(C3)C1)C2` (stereo not shown) [Rimantadine, 1-(1-adamantyl)ethanamine], the IC50 in data set [1] was 660 µM.
For the compound `CC12CC3CC(C)(C1)CC(N)(C3)C2` [Memantine, 3,5-dimethyladamantan-1-amine], the IC50 in data set [1] was found to be 330 µM. Moreover, in data set [2], the “cytotoxic effect (in words)” value is reported as “clear cytotoxic activity”. For the same compound, in the data set with NHEK cells, the “LDH-release at 6 hrs (early membrane damage)” value is “early membrane damage”.
